From PubChem BioAssay (NCI)
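Following 48 hours of exposure in 96-well plates, responses at five concentrations were used to interpolate endpoints linearly. At the TGI there is no net growth.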

Columns and labels:
Test in all cases: NCI anticancer screen, dose series, 48 h
NCI-H522 lung = system: NCI-H522 lung
U251 CNS = system: U251 CNS
SF-295 CNS = system: SF-295 CNS
TK-10 renal = system: TK-10 renal
NCI/ADR-RES ovarian = system: NCI/ADR-RES ovarian
HCC-2998 colon = system: HCC-2998 colon
UACC-62 melanoma = system: UACC-62 melanoma
786-0 renal = system: 786-0 renal
MOLT-4 leukemia = system: MOLT-4 leukemia
MDA-N = system: MDA-N
SN12C renal = system: SN12C renal
HS 578T breast = system: HS 578T breast
SNB-19 CNS = system: SNB-19 CNS
RXF 393 renal = system: RXF 393 renal
COLO 205 colon = system: COLO 205 colon

SMILES	TGI (NCI-H522 lung) [µM]	TGI (U251 CNS) [µM]	TGI (SF-295 CNS) [µM]	TGI (TK-10 renal) [µM]	TGI (NCI/ADR-RES ovarian) [µM]	TGI (HCC-2998 colon) [µM]	TGI (UACC-62 melanoma) [µM]	TGI (786-0 renal) [µM]	TGI (MOLT-4 leukemia) [µM]	TGI (MDA-N) [µM]	TGI (SN12C renal) [µM]	TGI (HS 578T breast) [µM]	TGI (SNB-19 CNS) [µM]	TGI (RXF 393 renal) [µM]	TGI (COLO 205 colon) [µM]
CC(=O)NC1C(OCc2ccccc2)OC(CO)C(O)C1OC(C)C(=O)NC(C)C(=O)NC(CCC(=O)NCCCCNc1c2ccccc2nc2cccc([N+](=O)[O-])c12)C(N)=O (stereo not given)	0.286	0.303	1.66	0.128	0.524	0.0588	0.115	0.146	3.13	0.0532	0.313	0.562	0.242	0.0676	0.0506
COc1ccc(/C(Br)=C2\OC(=O)c3ccccc32)cc1	> 10	> 10	> 10	> 10	> 10	> 10	> 10	> 10	> 10	> 10	> 10	> 10	> 10	> 10	> 10
CCCC1CCC(=C2C(=O)CCC2=O)O1 (stereo not given)	> 100	> 100	> 100	> 100	> 100	> 100	> 100	> 100	> 100	> 100	> 100	> 100	> 100	> 100	> 100
CCOC(=O)/C=C/CCO[Si](C)(C)C(C)(C)C	> 100	> 100	> 100	> 100	> 100	> 100	> 100	> 100	> 100	> 100	> 100	> 100	> 100	> 100	> 100
CCOC(=O)C1(C(=O)OCC)[C@@H](c2ccccc2)C2=NO[C@@H]3CCC[C@H]1[C@H]23	> 100	> 100	> 100	> 100	> 100	50.2	> 100	> 100	> 100	64.6	> 100	> 100	> 100	> 100	> 100
O=[N+]([O-])c1ccc(C(=S)Nc2ccccc2)o1	3.11	3.05	15.5	14.1	9.4	3.17	11.4	6.19	11.7	9.53	6.82	32.7	17.3	15.2	2.79
COc1ccc(N2C(=O)/C(=C\c3cc(OC)c(OC)c(OC)c3)SC2c2ccccc2)cc1 (stereo not given)	> 100	> 100	> 100	> 100	> 100	> 100	> 100	> 100	> 100	> 100	> 100	> 100	> 100	> 100	> 100
Cc1nc2ccc(C(F)(F)F)cc2nc1NCc1ccc(Cl)c(Cl)c1	28.8	30.6	32.2	21.2	47.6	22.3	18.5	30.3	35.8	32	35.3	45.5	36.6	26.5	30.6
O=C1Cc2c([nH]c3ccc(Br)cc23)-c2cc(O)c(O)cc2N1	> 100	> 100	> 100	> 100	> 100	> 100	> 100	> 100	> 100	> 100	> 100	> 100	> 100	> 100	> 100
Nc1ccc2c(c1)nc1n2C(c2c(F)cccc2F)SC1 (stereo not given)	> 100	> 100	> 100	> 100	> 100	> 100	> 100	> 100	> 100	> 100	> 100	> 100	> 100	> 100	> 100
CCOC(=O)c1c(C)n(-c2ccc(Cl)cc2)c2c1cc(O)c1[nH]c3c(c12)CCCC3	60.4	> 100	> 100	> 100	> 100	> 100	> 100	> 100	> 100	> 100	> 100	72.4	> 100	> 100	> 100
O=c1[nH]nc(Cc2ccccc2)n1C1CCCC1	> 100	> 100	> 100	> 100	> 100	> 100	> 100	> 100	> 100	> 100	> 100	> 100	> 100	> 100	> 100
CCOC(=O)C(=CNc1ccc(NC2=NCC(C)S2)cc1)C(=O)OCC (stereo not given)	36.8	> 100	> 100	> 100	95.1	> 100	26.8	84.6	30	> 100	> 100	74.8	> 100	97.1	> 100
COC(=O)[C@]1(NC(=O)c2ccccc2)C[C@H]1C=O	> 100	> 100	> 100	> 100	> 100	> 100	> 100	> 100	> 100	> 100	> 100	> 100	> 100	> 100	> 100
CCCCc1ccc(-n2sc3ncc(C)cc3c2=O)cc1	40.6	> 100	> 100	> 100	72	> 100	> 100	> 100	> 100	> 100	47.2	> 100	> 100	73.8	46.3
CC1(c2nc3ccccc3[nH]2)CCC(C(=O)O)C(C)(C)O1 (stereo not given)	> 100	> 100	> 100	> 100	> 100	> 100	> 100	> 100	> 100	> 100	> 100	> 100	> 100	> 100	> 100
